# Test results published in patent US8742132B2, “Indolylmaleimide derivatives processes for their production and pharmaceutical compositions” (Novartis AG, priority 2006, dated 2014).
# Assays:
# [1] = target: T1, Human recombinant PKCβ1 (Homo sapiens, UniProt P05771); test: Protein Kinase Cβ1 Assay; format: biochemical; conditions: single compounds
# T1 construct: purchased Oxford Biomedical Research
# Protocol: (§1) The compounds of the invention are tested for their activity on different PKC isoforms according to the following method. Assay is performed in a white with clear bottom 384-well microtiterplate with non-binding surface. The reaction mixture (25 μl) contains 1.5 μM of a tridecapeptide acceptor substrate that mimics the pseudo substrate sequence of PKC a with the Ala→Ser replacement, 10 μM ^33P-ATP, 10 mM Mg(NO3)2, 0.2 mM CaCl2, PKC at a protein concentration varying from 25 to 400 ng/ml (depending on the isotype used), lipid vesicles (containing 30 mol % phosphatidylserine, 5 mol % DAG and 65 mol % phosphatidylcholine) at a final lipid concentration of 0.5 mM, in 20 mM Tris-HCl buffer pH 7.4 +0.1% BSA. Incubation is performed for 60 min at room temperature. Reaction is stopped by adding 50 μl of stop mix (100 mM EDTA, 200 μM ATP, 0.1% Triton X-100, 0.375 mg/well streptavidin-coated SPA beads in phosphate buffered saline w/o Ca, Mg. After 10 min incubation at room temperature, the suspension is spun down for 10 min at 300 g. Incorporated radioactivity is measured in a Trilux counter for 1 min. IC50 measurement is performed on a routine basis by incubating a serial dilution of inhibitor at concentrations ranging between […]. IC50 values are calculated from the graph by curve fitting with XL Fit® software. […]
# [2] = target: T2, Human recombinant PKCα (Homo sapiens, UniProt P17252); test: Protein Kinase Cα Assay; format: biochemical; conditions: single compounds
# T2 construct: purchased Oxford Biomedical Research
# Protocol: as §1
# T1 sequence (P05771 whole entry): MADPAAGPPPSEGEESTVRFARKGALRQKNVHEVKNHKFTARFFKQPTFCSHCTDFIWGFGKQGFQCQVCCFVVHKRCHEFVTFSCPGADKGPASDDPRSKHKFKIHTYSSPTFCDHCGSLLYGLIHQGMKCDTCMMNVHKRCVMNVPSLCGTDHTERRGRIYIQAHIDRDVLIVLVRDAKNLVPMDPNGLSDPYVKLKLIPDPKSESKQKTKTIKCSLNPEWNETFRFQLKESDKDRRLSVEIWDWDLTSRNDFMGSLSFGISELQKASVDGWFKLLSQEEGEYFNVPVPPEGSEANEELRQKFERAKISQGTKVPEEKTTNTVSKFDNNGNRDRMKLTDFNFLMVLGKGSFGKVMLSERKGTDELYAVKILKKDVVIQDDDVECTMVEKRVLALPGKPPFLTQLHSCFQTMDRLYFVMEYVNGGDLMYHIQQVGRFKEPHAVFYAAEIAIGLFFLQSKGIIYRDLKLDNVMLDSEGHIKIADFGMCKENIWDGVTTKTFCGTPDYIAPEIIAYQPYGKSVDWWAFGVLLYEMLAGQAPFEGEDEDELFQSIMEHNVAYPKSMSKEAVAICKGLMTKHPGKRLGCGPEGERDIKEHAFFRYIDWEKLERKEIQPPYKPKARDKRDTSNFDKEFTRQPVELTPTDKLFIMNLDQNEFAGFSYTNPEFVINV
IC50 [1],IC50 [2],Structure (SMILES)
18.2 nM,–,"Cc1cc2ccc(CN(C)C)cn2c1C1=C(c2c[nH]c3ccccc23)C(=O)NC1=O [Example 24, 3-(6-Dimethylaminomethyl-2-methyl-indolizin-3-yl)-4-(1H-indol-3-yl)-pyrrole-2,5-dione]"
0.9 nM,–,Cc1ccc2c(C3=C(c4c(C(F)(F)F)[nH]c5ccc(CN(C)C)cc45)C(=O)NC3=O)c[nH]c2c1 [Example 47]
–,0.3 nM,CNCc1ccc2[nH]c(C)c(C3=C(c4cn(C)c5ccccc45)C(=O)NC3=O)c2c1 [Example 51]
